# What was measured:
# [1] = Anticancer activity, SRB assay, non-small cell lung panel; assay type: cell-based, human; conditions: Homo sapiens; nine non-small cell lung cancer cell lines; exposure period of at least 48 h; read-out: GI50 (range over the panel)
# Experimental: (§1) Some of biological activity studies were carried out at the National Cancer Institute (NCI), Maryland, USA.
# (§2) The compounds were evaluated for anticancer activity against sixty human cancer cells derived from nine cancer types (leukemia cell line, non-small-cell lung cell line, colon cell line, CNS cell line, melanoma cell line, ovarian cell line, prostate cell line, renal cell line and breast cancer cell line) as shown in Table 1. For each compound, dose response curves for each cell line were measured at a minimum of five concentrations at 10 fold dilutions. A protocol of 48 h continuous drug exposure was used and a sulforhodamine B (SRB) protein assay was used to estimate cell viability or growth.
# [2] = test system: nine non-small cell lung cancer cell lines (A549/ATCC, EKVX, HOP-62, HOP-92, NCI-H226, NCI-H23, NCI-H322M, NCI-H460 and NCI-H522); test: as above; assay type: cell-based, human; conditions: Non-small cell lung
# Experimental: as §1, §2
# SK-MEL-2 = test: Anticancer activity, SRB assay, melanoma cell line SK-MEL-2; assay type: cell-based, human; conditions: Homo sapiens; Melanoma SK-MEL-2; 48 h continuous drug exposure; —^b means GI50 values not attained at the concentrations used; read-out: Growth Inhibition GI50
# Experimental: as §1, §2
# COLO 205 = test: Anticancer activity, SRB assay, colon cell line COLO 205; assay type: cell-based; conditions: Homo sapiens; Colon COLO 205; 48 h continuous drug exposure; read-out: Growth Inhibition GI50
# Experimental: as §1, §2
# IGROV1 = test: Anticancer activity, SRB assay, ovarian cell line IGROV1; assay type: cell-based, human; conditions: Homo sapiens, IGROV-1, 48 h continuous drug exposure, —^b means GI50 values not attained at the concentrations used, read-out: Growth Inhibition GI50
# Experimental: as §1, §2
# SN12C = test: Anticancer activity, SRB assay, renal cell line SN12C; assay type: cell-based, human; conditions: Homo sapiens, 48 h continuous drug exposure, —^b means GI50 values not attained at the concentrations used, read-out: Growth Inhibition GI50
# Experimental: as §1, §2
# HCC-2998 = test: Anticancer activity, SRB assay, colon cell line HCC-2998; assay type: cell-based, human; conditions: Homo sapiens; Colon HCC-2998; 48 h continuous drug exposure; —^b means GI50 values not attained at the concentrations used; read-out: Growth Inhibition GI50
# Experimental: as §1, §2
# EKVX = test: Anticancer activity, SRB assay, non-small lung cell line EKVX; assay type: cell-based; conditions: Homo sapiens, 48 h continuous drug exposure, read-out: Growth Inhibition GI50
# Experimental: as §1, §2
# LOX IMVI = test: Anticancer activity, SRB assay, melanoma cell line LOX IMVI; assay type: cell-based; conditions: Homo sapiens, 48 h continuous drug exposure, read-out: Growth Inhibition GI50
# Experimental: as §1, §2
# OVCAR-5 = test: Anticancer activity, SRB assay, ovarian cell line OVCAR-5; assay type: cell-based, human; conditions: Homo sapiens; Ovarian OVCAR-5; 48 h continuous drug exposure; —^b means GI50 values not attained at the concentrations used; read-out: Growth Inhibition GI50
# Experimental: as §1, §2
# HL-60(TB) = test: Anticancer activity, SRB assay, leukemia cell line HL-60(TB); assay type: cell-based; conditions: Homo sapiens; Leukemia HL-60(TB); 48 h continuous drug exposure; read-out: Growth Inhibition GI50
# Experimental: as §1, §2
# UACC-257 = test: Anticancer activity, SRB assay, melanoma cell line UACC-257; assay type: cell-based; conditions: Homo sapiens; Melanoma UACC-257; 48 h continuous drug exposure; read-out: Growth Inhibition GI50
# Experimental: as §1, §2
# T-47D = test: Anticancer activity, SRB assay, breast cell line T-47D; assay type: cell-based, human; conditions: Homo sapiens, T47D; Breast T-47D; 48 h continuous drug exposure; —^b means GI50 values not attained at the concentrations used; read-out: Growth Inhibition GI50
# Experimental: as §1, §2
# HCT-116 = test: Anticancer activity, SRB assay, colon cell line HCT-116; assay type: cell-based; conditions: Homo sapiens; Colon HCT-116; 48 h continuous drug exposure; read-out: Growth Inhibition GI50
# Experimental: as §1, §2
# M14 = test: Anticancer activity, SRB assay, melanoma cell line M14; assay type: cell-based; conditions: Homo sapiens, 48 h continuous drug exposure, read-out: Growth Inhibition GI50
# Experimental: as §1, §2
# MCF7 = test: Anticancer activity, SRB assay, breast cell line MCF7; assay type: cell-based; conditions: Homo sapiens, 48 h continuous drug exposure, read-out: Growth Inhibition GI50
# Experimental: as §1, §2
# SF-539 = test: Anticancer activity, SRB assay, CNS cell line SF-539; assay type: cell-based, human; conditions: Homo sapiens; CNS SF-539; 48 h continuous drug exposure; —^b means GI50 values not attained at the concentrations used; read-out: Growth Inhibition GI50
# Experimental: as §1, §2
# [3] = test system: eight renal cancer cell line (786-0, A498, ACHN, CAKI-1, SN12C, TK-10, UO-31 and RXF 393); test: Anticancer activity, SRB assay, renal panel; assay type: cell-based, human; set-up: mean graph midpoint values (MG_MID) of Log10LC50 / mean graph midpoint values (MG_MID) of log10 TGI (Log10TGI50): unit not given here
# Experimental: as §1, §2
# DU-145 = test: Anticancer activity, SRB assay, prostate cell line DU-145; assay type: cell-based, human; conditions: Homo sapiens; Prostate DU-145; 48 h continuous drug exposure; —^b means GI50 values not attained at the concentrations used; read-out: Growth Inhibition GI50
# Experimental: as §1, §2
# [4] = test system: sixty human cancer cell lines derived from nine cancer types; test: Anticancer activity against sixty human cancer cell lines; assay type: cell-based
# Experimental: as §1, §2
# [5] = test system: seven ovarian cancer cell lines (IGROV1, OVCAR-3, OVCAR-4, OVCAR-5, OVCAR-8, NCI/ADR-RES and SK-OV-3); test: Anticancer activity, SRB assay, ovarian panel; assay type: cell-based, human
# Experimental: as §1, §2
# NCI-H226 = test: Anticancer activity, SRB assay, non-small lung cell line NCI-H226; assay type: cell-based, human; conditions: Homo sapiens, NCI-H226; Non-small lung NCl-H226; 48 h continuous drug exposure; —^b means GI50 values not attained at the concentrations used; read-out: Growth Inhibition GI50
# Experimental: as §1, §2
# U251 = test: Anticancer activity, SRB assay, CNS cell line U251; assay type: cell-based; conditions: Homo sapiens, U-251, 48 h continuous drug exposure, read-out: Growth Inhibition GI50
# Experimental: as §1, §2
# NCI-H322M = test: Anticancer activity, SRB assay, non-small lung cell line NCI-H322M; assay type: cell-based, human; conditions: Homo sapiens, NCI-H322M; Non-small lung NCl-H322M; 48 h continuous drug exposure; —^b means GI50 values not attained at the concentrations used; read-out: Growth Inhibition GI50
# Experimental: as §1, §2
# KM12 = test: Anticancer activity, SRB assay, colon cell line KM12; assay type: cell-based; conditions: Homo sapiens, 48 h continuous drug exposure, read-out: Growth Inhibition GI50
# Experimental: as §1, §2
# A498 = test: Anticancer activity, SRB assay, renal cell line A498; assay type: cell-based, human; conditions: Homo sapiens, 48 h continuous drug exposure, —^b means GI50 values not attained at the concentrations used, read-out: Growth Inhibition GI50
# Experimental: as §1, §2
# OVCAR-8 = test: Anticancer activity, SRB assay, ovarian cell line OVCAR-8; assay type: cell-based, human; conditions: Homo sapiens; Ovarian OVCAR-8; 48 h continuous drug exposure; —^b means GI50 values not attained at the concentrations used; read-out: Growth Inhibition GI50
# Experimental: as §1, §2
# NCI-H23 = test: Anticancer activity, SRB assay, non-small lung cell line NCI-H23; assay type: cell-based; conditions: Homo sapiens, Non-small lung NCl-H23, 48 h continuous drug exposure, read-out: Growth Inhibition GI50
# Experimental: as §1, §2
structure (smiles),measurement,setting,value
"Cc1cc(C#Cc2ccccc2)ccc1-n1c(/C=C/c2cc(O)ccc2O)nc2ccccc2c1=O [Compound 4c, (E)-2-(2,5-Dihydroxystyryl)-3-(2-methyl-4-(phenylethynyl)phenyl)quinazolin-4(3H)-one]",GI50,[1],1240 to 1710 nM
same,mean graph midpoint values (MG_MID) of log10 TGI (Log10TGI50),[2]; log value of concentration of the compound resulting in total inhibition of net cell growth,−5.44
same,mean graph midpoint values (MG_MID) of Log10LC50,[2]; log value of the concentration of compounds leading to 50% net cell death,−4.91
same,mean graph midpoint values (MG_MID) of Log10GI50,[2]; log values of concentration in mol/L causing 50% inhibition of net cell growth,−5.83 mol/L
same,GI50,SK-MEL-2,1400 nM
same,GI50,COLO 205,1480 nM
same,GI50,IGROV1,2450 nM
same,GI50,SN12C,1620 nM
same,GI50,HCC-2998,1360 nM
same,GI50,EKVX,1240 nM
same,GI50,LOX IMVI,1370 nM
same,GI50,OVCAR-5,1390 nM
same,GI50,HL-60(TB),634 nM
same,GI50,UACC-257,1560 nM
same,GI50,T-47D,1140 nM
same,GI50,HCT-116,1460 nM
same,GI50,M14,1540 nM
same,GI50,MCF7,1450 nM
same,GI50,SF-539,1600 nM
same,GI50,"[3]; Homo sapiens, eight renal cancer cell line, exposure period of at least 48 h, read-out: in vitro anticancer activity (range over the panel)",370 to 2150 nM
same,mean graph midpoint values (MG_MID) of log10 TGI (Log10TGI50),"[3]; Renal, log value of concentration of the compound resulting in total inhibition of net cell growth",−5.43
same,mean graph midpoint values (MG_MID) of Log10LC50,"[3]; Renal, log value of the concentration of compounds leading to 50% net cell death",−4.93
same,mean graph midpoint values (MG_MID) of Log10GI50,"[3]; Renal, log values of concentration in mol/L causing 50% inhibition of net cell growth",−5.86 mol/L
same,GI50,DU-145,419 nM
same,in vitro anticancer activity (in words),[4],exhibiting an in vitro anticancer activity
same,GI50,"[5]; Homo sapiens, seven ovarian cancer cell lines, exposure period of at least 48 h, read-out: GI50 (range over the panel)",1390 to 2450 nM
same,mean graph midpoint values (MG_MID) of log10 TGI (Log10TGI50),"[5]; Ovarian, log value of concentration of the compound resulting in total inhibition of net cell growth",−5.31
same,mean graph midpoint values (MG_MID) of Log10LC50,"[5]; Ovarian, log value of the concentration of compounds leading to 50% net cell death",−4.61
same,mean graph midpoint values (MG_MID) of Log10GI50,"[5]; Ovarian, log values of concentration in mol/L causing 50% inhibition of net cell growth",−5.72 mol/L
same,GI50,NCI-H226,1520 nM
same,GI50,U251,1450 nM
same,GI50,NCI-H322M,1620 nM
same,GI50,KM12,1650 nM
same,GI50,A498,370 nM
same,GI50,OVCAR-8,1940 nM
same,GI50,NCI-H23,1480 nM

# From US8680272B2, “3-arylethynyl substituted quinazolinone compounds” (Council of Scientific & Industrial Research, priority 2011, dated 2014)
